Source: US20090291942A1, “IMIDAZO PYRIDINE DERIVATIVES” (priority 2008, published 2009)
Counter-ions that a name gives are not always drawn.

target: T1, human GPR4 (Homo sapiens, UniProt P46093); assay: Cell-based assay for human GPR4 activity (pH-induced cAMP formation, HTRF); conditions: HeLa cells stably expressing human GPR4, pH-induced cAMP formation
T1 construct: expressed in transfected cells
Protocol: a) Cell-Based Assay for Human GPR4 Activity
HeLa cells stably expressing human GPR4 were established by transfecting the cells with a construct containing the human GPR4 coding sequence. The cells were grown in DMEM/HAM's F12 medium supplemented with 10% fetal calf serum (FCS), 100 u/ml penicillin, 100 μg/ml streptomycin and 400 μg/ml G418 and 10 mM Hepes pH 8.0. pH-induced formation of cAMP was determined using the HTRF technology as provided by CisBio Inc. The cells were seeded in 384-well plates and cultured for 24 hours at 37° C., 5% CO2 before performing the assay. Medium was removed and 10 μl buffer A (HBS, 10 mM Hepes, pH 8, 2 mM IBMX) was added. For compound testing, buffer A with 2× concentrated compounds was used. Cells were incubated for 15 min at room temperature. 10 μl buffer B (HBS, 30 mM Hepes, specific pH) was added to reach the appropriate final pH for stimulation (see below) and incubation was continued for 15 min at room temperature. […] HBS: 130 mM NaCl, 0.9 mM NaH2PO4, 5.4 mM KCl, 0.8 mM MgSO4, CaCl2 1.8 mM, 25 mM glucose, 10-30 mM Hepes. Adjustment of HBS buffers: Bf A Bf B Final stimulation pH (1 volume buffer A+1 volume buffer B)
Compounds were diluted from fresh stock solutions at 10 mM in DMSO to 2 mM and then used for serial dilutions in DMSO.

T1 sequence (P46093 whole entry): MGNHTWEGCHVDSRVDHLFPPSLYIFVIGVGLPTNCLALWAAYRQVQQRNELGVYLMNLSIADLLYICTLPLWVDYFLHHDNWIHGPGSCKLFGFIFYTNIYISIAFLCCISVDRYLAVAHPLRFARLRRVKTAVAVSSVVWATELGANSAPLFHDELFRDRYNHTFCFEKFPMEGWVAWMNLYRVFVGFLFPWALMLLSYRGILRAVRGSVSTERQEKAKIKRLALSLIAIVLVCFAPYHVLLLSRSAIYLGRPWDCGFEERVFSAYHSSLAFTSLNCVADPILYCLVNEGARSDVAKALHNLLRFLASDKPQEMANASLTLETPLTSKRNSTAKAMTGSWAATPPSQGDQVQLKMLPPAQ

| IC50 | SMILES |
| --- | --- |
| 46 nM | CCCN1CCN(C/C=C/c2ccc(Cn3c(CC)nc4c(C)cc(C)nc43)cc2)CC1 [Example 45, 2-Ethyl-5,7-dimethyl-3-{4-[(E)-3-(4-propyl-piperazin-1-yl)-propenyl]-benzyl}-3H-imidazo[4,5-b]pyridine] |
| 370 nM | CCc1nc2c(C)cc(C)nc2n1Cc1ccc(/C=C/CCn2ccnc2)cc1 [Example 109] |
| 191 nM | CCc1nc2c(C)cc(C)nc2n1Cc1ccc(/C=C/CCN2CCC(N3CCN(C)CC3)CC2)cc1 [Example 107, 2-Ethyl-5,7-dimethyl-3-{4-[(E)-4-[4-(4-methyl-piperazin-1-yl)-piperidin-1-yl]-but-1-enyl]-benzyl}-3H-imidazo[4,5-b]pyridine] |
| 452 nM | CCc1nc2c(C)cc(C)nc2n1Cc1ccc(/C=C/CN2CCN(C(C)C)C(CC)C2)cc1 (stereo not drawn) [Example 72, 2-Ethyl-3-{4-[(E)-3-(3-ethyl-4-isopropyl-piperazin-1-yl)-propenyl]-benzyl}-5,7-dimethyl-3H-imidazo[4,5-b]pyridine dihydrochloride] |
| 364 nM | CCc1nc2c(C)cc(C)nc2n1Cc1ccc(CCCN2CCN(C(C)C)C(CC)C2)cc1 (stereo not drawn) [Example 25, 2-Ethyl-3-{4-[3-(3-ethyl-4-isopropyl-piperazin-1-yl)-propyl]-benzyl}-5,7-dimethyl-3H-imidazo[4,5-b]pyridine] |
| 997 nM | CCc1nc2c(C)cc(C)nc2n1Cc1ccc(C(=O)NCCCCN2CCCC2)cc1 [Example 99, 4-(2-Ethyl-5,7-dimethyl-imidazo[4,5-b]pyridin-3-ylmethyl)-N-(4-pyrrolidin-1-yl-butyl)-benzamide] |
| 704 nM | CCc1nc2c(C)cc(C)nc2n1Cc1ccc(C#CCNCCN2CCCC2)cc1 [Example 4, {3-[4-(2-Ethyl-5,7-dimethyl-imidazo[4,5-b]pyridin-3-ylmethyl)-phenyl]-prop-2-ynyl}-(2-pyrrolidin-1-yl-ethyl)-amine] |
| 194 nM | CCc1nc2c(C)cc(C)nc2n1Cc1ccc(/C=C/CN2CCN(C(CC)CC)CC2)cc1 [Example 53, 2-Ethyl-3-(4-{(E)-3-[4-(1-ethyl-propyl)-piperazin-1-yl]-propenyl}-benzyl)-5,7-dimethyl-3H-imidazo[4,5-b]pyridine dihydrochloride] |
| 162 nM | CCc1nc2c(C)cc(C)nc2n1Cc1ccc(/C=C/CN2CCNCC2)cc1 [Example 42, 2-Ethyl-5,7-dimethyl-3-[4-((E)-3-piperazin-1-yl-propenyl)-benzyl]-3H-imidazo[4,5-b]pyridine] |
| 395 nM | CCc1nc2c(C)cc(C)nc2n1Cc1ccc(CCCN2CCN(C)CC2)cc1 [Example 6, 2-Ethyl-5,7-dimethyl-3-{4-[3-(4-methyl-piperazin-1-yl)-propyl]-benzyl}-3H-imidazo[4,5-b]pyridine dihydrochloride] |
| 367 nM | CCc1nc2c(C)cc(C)nc2n1Cc1ccc(/C=C/CN2CCN(CCCOC)CC2)cc1 [Example 64, 2-Ethyl-3-(4-{(E)-3-[4-(3-methoxy-propyl)-piperazin-1-yl]-propenyl}-benzyl)-5,7-dimethyl-3H-imidazo[4,5-b]pyridine dihydrochloride] |
| 98 nM | CCc1nc2c(C)cc(C)nc2n1Cc1ccc(/C=C/CCN2CCN(C(C)C)CC2)cc1 [Example 106, 2-Ethyl-3-{4-[(E)-4-(4-isopropyl-piperazin-1-yl)-but-1-enyl]-benzyl}-5,7-dimethyl-3H-imidazo[4,5-b]pyridine dihydrochloride] |
| 31 nM | CCc1nc2c(C)cc(C)nc2n1Cc1ccc(/C=C(\F)CN2CCN(C(C)(C)C)CC2)cc1 [Example 95, 3-{4-[(Z)-3-(4-tert-Butyl-piperazin-1-yl)-2-fluoro-propenyl]-benzyl}-2-ethyl-5,7-dimethyl-3H-imidazo[4,5-b]pyridine dihydrochloride] |
| 342 nM | CCc1nc2c(C)cc(C)nc2n1Cc1ccc(/C=C/CN2CCC(N3CCN(C)CC3)CC2)cc1 [Example 35, 2-Ethyl-5,7-dimethyl-3-(4-{(E)-3-[4-(4-methyl-piperazin-1-yl)-piperidin-1-yl]-propenyl}-benzyl)-3H-imidazo[4,5-b]pyridine] |
| 144 nM | CCc1nc2c(C)cc(C)nc2n1Cc1ccc(/C=C/CN2CCC(N(CC)CC)CC2)cc1 [Example 31, Diethyl-(1-{(E)-3-[4-(2-ethyl-5,7-dimethyl-imidazo[4,5-b]pyridin-3-ylmethyl)-phenyl]-allyl}-piperidin-4-yl)-amine dihydrochloride] |
| 877 nM | CCc1nc2c(C)cc(C)nc2n1Cc1ccc(CCCN2C[C@H]3C[C@@H]2CN3CC)cc1 [Example 26, 2-Ethyl-3-{4-[3-((1R,4R)-5-ethyl-2,5-diaza-bicyclo[2.2.1]hept-2-yl)-propyl]-benzyl}-5,7-dimethyl-3H-imidazo[4,5-b]pyridine] |
| 364 nM | CCc1nc2c(C)cc(C)nc2n1Cc1ccc(NC(=O)CCCCN2CCCC2)cc1 [Example 101, 5-Pyrrolidin-1-yl-pentanoic acid [4-(2-ethyl-5,7-dimethyl-imidazo[4,5-b]pyridin-3-ylmethyl)-phenyl]-amide] |
| 829 nM | CCOCCN1CCN(C/C=C/c2ccc(Cn3c(CC)nc4c(C)cc(C)nc43)cc2)CC1 [Example 63, 3-(4-{(E)-3-[4-(2-Ethoxy-ethyl)-piperazin-1-yl]-propenyl}-benzyl)-2-ethyl-5,7-dimethyl-3H-imidazo[4,5-b]pyridine] |
| 182 nM | CCc1nc2c(C)cc(C)nc2n1Cc1ccc(CCCN2CCN(C3CCCCC3)CC2)cc1 [Example 19, 3-{4-[3-(4-Cyclohexyl-piperazin-1-yl)-propyl]-benzyl}-2-ethyl-5,7-dimethyl-3H-imidazo[4,5-b]pyridine dihydrochloride] |
| 463 nM | CCc1nc2c(C)cc(C)nc2n1Cc1ccc(/C=C/CN2CCN(CC(C)C)CC2)cc1 [Example 50, 2-Ethyl-3-{4-[(E)-3-(4-isobutyl-piperazin-1-yl)-propenyl]-benzyl}-5,7-dimethyl-3H-imidazo[4,5-b]pyridine dihydrochloride] |
| 584 nM | CCc1nc2c(C)cc(C)nc2n1Cc1ccc(C#CCN2CCCC2)cc1 [Example 3, 2-Ethyl-5,7-dimethyl-3-[4-(3-pyrrolidin-1-yl-prop-1-ynyl)-benzyl]-3H-imidazo[4,5-b]pyridine] |
| 115 nM | CCc1nc2c(C)cc(C)nc2n1Cc1ccc(/C=C/CCN2CCC(N3CCCCC3)CC2)cc1 [Example 105, 1′-{(E)-4-[4-(2-Ethyl-5,7-dimethyl-imidazo[4,5-b]pyridin-3-ylmethyl)-phenyl]-but-3-enyl}-[1,4′]bipiperidine] |
| 241 nM | CCc1nc2c(C)cc(C)nc2n1Cc1ccc(NC(=O)CCCCN2CCCCC2)cc1 [Example 102, 5-Piperidin-1-yl-pentanoic acid [4-(2-ethyl-5,7-dimethyl-imidazo[4,5-b]pyridin-3-ylmethyl)-phenyl]-amide] |
| 146 nM | CCc1nc2c(C)cc(C)nc2n1Cc1ccc(/C=C/CN2C[C@H]3C[C@@H]2CN3CC(C)C)cc1 [Example 75, 2-Ethyl-3-{4-[(E)-3-((1R,4R)-5-isobutyl-2,5-diaza-bicyclo[2.2.1]hept-2-yl)-propenyl]-benzyl}-5,7-dimethyl-3H-imidazo[4,5-b]pyridine dihydrochloride] |
| 479 nM | CCc1nc2c(C)cc(C)nc2n1Cc1ccc(CCCN2CCN(C(C)CC)CC2)cc1 (stereo not drawn) [Example 11, 3-{4-[3-(4-sec-Butyl-piperazin-1-yl)-propyl]-benzyl}-2-ethyl-5,7-dimethyl-3H-imidazo[4,5-b]pyridine] |
| 953 nM | CCc1nc2c(C)cc(C)nc2n1Cc1ccc(CCCN2CCN(CCOC)CC2)cc1 [Example 20, 2-Ethyl-3-(4-{3-[4-(2-methoxy-ethyl)-piperazin-1-yl]-propyl}-benzyl)-5,7-dimethyl-3H-imidazo[4,5-b]pyridine dihydrochloride] |
| 166 nM | CCCC(C)N1CCN(C/C=C/c2ccc(Cn3c(CC)nc4c(C)cc(C)nc43)cc2)CC1 (stereo not drawn) [Example 54, 2-Ethyl-5,7-dimethyl-3-(4-{(E)-3-[4-(1-methyl-butyl)-piperazin-1-yl]-propenyl}-benzyl)-3H-imidazo[4,5-b]pyridine dihydrochloride] |
| 834 nM | CCCCc1nc2c(C)cc(C)nc2n1Cc1ccc(/C=C/CN2CCN(C(C)C)CC2)cc1 [Example 85, 2-Butyl-3-{4-[(E)-3-(4-isopropyl-piperazin-1-yl)-propenyl]-benzyl}-5,7-dimethyl-3H-imidazo[4,5-b]pyridine dihydrochloride] |
| 436 nM | CCc1nc2c(C)cc(C)nc2n1Cc1ccc(CCCN2C[C@H]3C[C@@H]2CN3CC2CC2)cc1 [Example 28, 3-{4-[3-((1R,4R)-5-Cyclopropylmethyl-2,5-diaza-bicyclo[2.2.1]hept-2-yl)-propyl]-benzyl}-2-ethyl-5,7-dimethyl-3H-imidazo[4,5-b]pyridine] |

| SMILES | IC50 |
| --- | --- |
| CCc1nc2c(C)cc(C)nc2n1Cc1ccc(/C=C/CN2[C@@H]3CC[C@H]2CC(n2cnc4ccccc42)C3)cc1 (stereo partly drawn) [Example 41, 3-{4-[(E)-3-((1R,5S)-3-Benzoimidazol-1-yl-8-aza-bicyclo[3.2.1]oct-8-yl)-propenyl]-benzyl}-2-ethyl-5,7-dimethyl-3H-imidazo[4,5-b]pyridine hydrochloride] | 799 nM |
